These results are taken from patent US20250115600A1, “COVALENT MODIFIERS OF AKT1 AND USES THEREOF” (Terremoto Biosciences, Inc., priority 2022, published 2025).

In one assay the target is AKT1 E17K mutant protein (Homo sapiens (Human), UniProt P31749, E17K). The assay can be described thus: Intact mass spectrometry, covalent complex formation and ARQ-092 competition. It is filed as binding. Particulars: for covalent complex formation with AKT1 E17K mutant protein / covalent complex formation with AKT1 E17K mutant protein in presence of competitor: protein 1 μM, compound 1.5 μM, 2 hrs at 37° C., NaBH4 reduction; for covalent complex formation with AKT1 E17K mutant protein: absence of competitor; for covalent complex formation with AKT1 E17K mutant protein in presence of competitor: with ARQ092 (50 μM). How it is done:
(§1) AKT1 WT or AKT1 E17K (1 μM) was treated with a compound from Table 1 (1.5 μM) for 2 hrs at 37° C., with and without ARQ092 (50 μM) competitor as a specificity control. Reversible imines were captured by reductive amination with 5 mM NaBH4 for 5 min. Reduction reactions were quenched by diluting the sample in equal volume acetonitrile+1% TFA, then analyzed by LCMS.
(§2) FIGS. 1 to 25 provide intact mass spectra for AKT1 WT protein and AKT1 E17K mutant protein after incubation with compounds of the present disclosure and subsequent borohydride reduction. […] Further, FIGS. 1 to 10, 12, and 14 to 25 each provide intact mass spectra following the incubation of an AKT1 protein with a compound of the present disclosure both in the absence of a competitor molecule (i.e., ARQ-092, a molecule known to bind to and inhibit the function of AKT1); and in the presence of a significant stoichiometric excess of a competitor molecule.

The target in assay [1] is T1, AKT1 WT (Homo sapiens (Human), UniProt P31749). Described as above. In kind it is binding. Particulars: protein 1 μM, compound 1.5 μM, 2 hrs at 37° C., NaBH4 reduction; for covalent complex formation with AKT1 WT protein: absence of competitor; for covalent complex formation with AKT1 WT protein in presence of competitor: with ARQ092 (50 μM). How it is done:
as §1, §2
Target sequence in this assay (P31749 2-480): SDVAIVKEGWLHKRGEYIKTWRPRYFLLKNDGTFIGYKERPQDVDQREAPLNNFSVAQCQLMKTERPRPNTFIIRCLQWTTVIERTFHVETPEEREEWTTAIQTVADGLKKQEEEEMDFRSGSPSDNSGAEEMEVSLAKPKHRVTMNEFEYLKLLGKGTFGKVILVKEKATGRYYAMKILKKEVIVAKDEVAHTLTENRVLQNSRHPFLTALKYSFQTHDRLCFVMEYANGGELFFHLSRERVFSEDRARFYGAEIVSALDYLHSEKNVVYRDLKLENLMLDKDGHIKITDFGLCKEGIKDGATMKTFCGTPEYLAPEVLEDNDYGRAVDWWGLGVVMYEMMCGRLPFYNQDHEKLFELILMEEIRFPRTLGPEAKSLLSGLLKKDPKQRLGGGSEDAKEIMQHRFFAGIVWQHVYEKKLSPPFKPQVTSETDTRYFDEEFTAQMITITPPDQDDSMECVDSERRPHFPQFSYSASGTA

For a further assay, the target named is AKT1 E17K (Homo sapiens (Human), UniProt P31749, E17K). In words: Live cell target engagement (NanoBRET) in HEK293 cells. In kind it is cell-based. The settings on record: for IC50: HEK293, 2 hours at 37° C.
Chain of AKT1 E17K (P31749 whole entry E17K): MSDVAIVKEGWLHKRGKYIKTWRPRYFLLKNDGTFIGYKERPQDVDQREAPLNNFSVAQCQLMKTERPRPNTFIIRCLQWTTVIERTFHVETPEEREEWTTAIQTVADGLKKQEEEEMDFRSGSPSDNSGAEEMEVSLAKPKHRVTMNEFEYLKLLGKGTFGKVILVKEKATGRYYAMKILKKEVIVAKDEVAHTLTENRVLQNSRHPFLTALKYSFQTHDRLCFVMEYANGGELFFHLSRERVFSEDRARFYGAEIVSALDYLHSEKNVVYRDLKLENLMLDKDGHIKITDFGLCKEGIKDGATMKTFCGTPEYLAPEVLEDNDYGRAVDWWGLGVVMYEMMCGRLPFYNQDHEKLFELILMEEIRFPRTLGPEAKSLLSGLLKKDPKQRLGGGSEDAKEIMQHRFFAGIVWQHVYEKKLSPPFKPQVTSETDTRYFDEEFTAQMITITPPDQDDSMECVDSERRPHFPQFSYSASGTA
The target of assay [2] is T1, AKT1 WT. The description is as above. In kind it is cell-based. The settings on record: HEK293, 2 hours at 37° C.
Target sequence in this assay (P31749 whole entry): as the sequence (P31749 whole entry E17K) above, with K17E counted along it
The target of a further assay is AKT2 (Homo sapiens (Human), UniProt P31751). Described as above. Particulars: HEK293, 2 hours at 37° C. In kind it is cell-based.
Chain of AKT2 (P31751 whole entry): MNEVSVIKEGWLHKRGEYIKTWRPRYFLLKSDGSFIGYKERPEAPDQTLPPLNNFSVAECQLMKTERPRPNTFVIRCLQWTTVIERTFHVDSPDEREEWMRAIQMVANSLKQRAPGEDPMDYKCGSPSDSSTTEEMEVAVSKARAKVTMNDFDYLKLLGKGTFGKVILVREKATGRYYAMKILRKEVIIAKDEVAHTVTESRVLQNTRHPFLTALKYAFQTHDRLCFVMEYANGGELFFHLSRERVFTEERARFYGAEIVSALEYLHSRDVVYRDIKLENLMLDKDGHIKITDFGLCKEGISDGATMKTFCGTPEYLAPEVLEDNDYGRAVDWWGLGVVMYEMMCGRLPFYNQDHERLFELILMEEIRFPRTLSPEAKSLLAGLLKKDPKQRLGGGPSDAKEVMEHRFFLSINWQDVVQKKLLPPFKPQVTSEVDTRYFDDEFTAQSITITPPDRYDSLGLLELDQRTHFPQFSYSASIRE

Chain of AKT1 E17K mutant protein (P31749 2-480 E17K): as the sequence (P31749 2-480) above, with E16K counted along it

In the case of `Nc1ncccc1-c1nc2ccc(N3CCOCC3)nc2n1-c1ccc(CNC(=O)Cc2ccc(C=O)c(O)c2)cc1` [Compound 49, N-({4-[2-(2-aminopyridin-3-yl)-5-(morpholin-4-yl)imidazo[4,5-b]pyridin-3-yl]phenyl}methyl)-2-(4-formyl-3-hydroxyphenyl)acetamide], on AKT1 E17K mutant protein, the “covalent complex formation with AKT1 E17K mutant protein” value is “significant presence of a covalent complex” and the “covalent complex formation with AKT1 E17K mutant protein in presence of competitor” value is given as “Essentially little to no covalent complex formation”. At AKT1 WT [1], the “covalent complex formation with AKT1 WT protein” value is reported as “significant presence of covalent complex” and the “covalent complex formation with AKT1 WT protein in presence of competitor” value was “Essentially no covalent complex formation”. At AKT1 E17K, the “AKT1 E17K IC50: Selectivity vs AKT1 WT” value worked out at 20; the “AKT1 E17K IC50: Selectivity vs AKT2” value worked out at 1500; the IC50 (in general, the concentration that inhibits the measured activity by half) was less than 0.1 µM. The IC50 against AKT1 WT [2] was less than 0.1 µM. Also, the IC50 against AKT2 is greater than 0.5 µM.

Take `Nc1ncccc1-c1nc2ccc(-c3ccccc3)nc2n1-c1ccc(CNC(=O)c2cc(Cl)c(O)c(C=O)c2)cc1` [Compound 52, N-(4-(2-(2-aminopyridin-3-yl)-5-phenyl-3H-imidazo[4,5-b]pyridin-3-yl)benzyl)-3-chloro-5-formyl-4-hydroxybenzamide]: at AKT1 E17K mutant protein (comparison of the spectra without competitor), the “selectivity of complex formation, AKT1 E17K versus AKT1 WT” value is reported as “selective for complex formation with AKT1 E17K”. For the same molecule, on AKT1 E17K mutant protein, the “covalent complex formation with AKT1 E17K mutant protein” value is reported as “presence of a covalent complex” and the “covalent complex formation with AKT1 E17K mutant protein in presence of competitor” value is “Essentially no covalent complex formation”. Besides, at AKT1 WT [1], the “covalent complex formation with AKT1 WT protein” value is listed as “only peaks corresponding to unmodified WT protein” and the “covalent complex formation with AKT1 WT protein in presence of competitor” value is on record as “only peaks corresponding to unmodified WT protein”. In addition, on AKT1 E17K, the “AKT1 E17K IC50: Selectivity vs AKT1 WT” value came out at 1.2, the “AKT1 E17K IC50: Selectivity vs AKT2” value was 11 and the IC50 was less than 0.1 µM. Further, the half-inhibitory concentration (IC50) on AKT1 WT [2] is less than 0.1 µM. At AKT2, this molecule had an IC50 of 0.1 to 0.5 µM.

Turning to `Nc1ncccc1-c1nc2ccc(-c3cccc(N4CCOCC4)c3)nc2n1-c1ccc(CNC(=O)c2cc(F)c(O)c(C=O)c2)cc1` [Example 12, N-(4-(2-(2-aminopyridin-3-yl)-5-(3-morpholinophenyl)-3H-imidazo[4,5-b]pyridin-3-yl)benzyl)-3-fluoro-5-formyl-4-hydroxybenzamide], at AKT1 E17K, the “AKT1 E17K IC50: Selectivity vs AKT1 WT” value is given as 1.5, the “AKT1 E17K IC50: Selectivity vs AKT2” value is given as 5.2 and the IC50 is less than 0.1 µM. Further, the IC50 on AKT1 WT [2] was less than 0.1 µM. The IC50 against AKT2 lay within 0.1 to 0.5 µM.

As to `Nc1ncccc1-c1nc2ccc(-c3cccc(N4CCOCC4)c3)nc2n1-c1ccc(CNC(=O)Cc2ccc(C=O)c(O)c2Cl)cc1` [Example 13, N-({4-[2-(2-aminopyridin-3-yl)-5-[3-(morpholin-4-yl)phenyl]imidazo[4,5-b]pyridin-3-yl]phenyl}methyl)-2-(2-chloro-4-formyl-3-hydroxyphenyl)acetamide], on AKT1 E17K, the “AKT1 E17K IC50: Selectivity vs AKT1 WT” value turned out to be 1.2, the “AKT1 E17K IC50: Selectivity vs AKT2” value is reported as 3 and the IC50 was less than 0.1 µM. On AKT1 WT [2], this molecule yielded an IC50 of less than 0.1 µM. On AKT2, this molecule had an IC50 of less than 0.1 µM.

On to `Cc1c(CC(=O)NCc2ccc(-n3c(-c4cccnc4N)nc4ccc(-c5ccccc5)nc43)cc2)ccc(C=O)c1O` [Example 14, N-({4-[2-(2-aminopyridin-3-yl)-5-phenylimidazo[4,5-b]pyridin-3-yl]phenyl}methyl)-2-(4-formyl-3-hydroxy-2-methylphenyl)acetamide], for which, on AKT1 E17K, the “AKT1 E17K IC50: Selectivity vs AKT1 WT” value is recorded as 3.3, the “AKT1 E17K IC50: Selectivity vs AKT2” value is recorded as 36 and the IC50 is less than 0.1 µM. The same molecule registered an IC50 against AKT1 WT [2] of less than 0.1 µM. In addition, the IC50 against AKT2 was 0.1 to 0.5 µM.

In the case of `Nc1ncccc1-c1nc2ccc(-c3ccccc3)nc2n1-c1ccc(CNC(=O)c2ccc(O)c(C=O)c2F)cc1` [Example 15, N-(4-(2-(2-aminopyridin-3-yl)-5-phenyl-3H-imidazo[4,5-b]pyridin-3-yl)benzyl)-2-fluoro-3-formyl-4-hydroxybenzamide], on AKT1 E17K, the “AKT1 E17K IC50: Selectivity vs AKT1 WT” value worked out at 2, the “AKT1 E17K IC50: Selectivity vs AKT2” value is 13 and the IC50 was less than 0.1 µM. This molecule also yielded an IC50 against AKT1 WT [2] of 0.1 to 0.5 µM. On AKT2, this molecule had an IC50 greater than 0.5 µM.

For the molecule `Nc1ncccc1-c1nc2ccc(C3CC3)nc2n1-c1ccc(CNCCc2ccc(C=O)c(O)c2)cc1` [Example 16, 4-{2-[({4-[2-(2-aminopyridin-3-yl)-5-cyclopropylimidazo[4,5-b]pyridin-3-yl]phenyl}methyl)amino]ethyl}-2-hydroxybenzaldehyde], at AKT1 E17K, the “AKT1 E17K IC50: Selectivity vs AKT1 WT” value worked out at 2.4, the “AKT1 E17K IC50: Selectivity vs AKT2” value was 41 and the IC50 is less than 0.1 µM. This molecule also returned an IC50 on AKT1 WT [2] of 0.1 to 0.5 µM. Moreover, the IC50 at AKT2 was greater than 0.5 µM.

Take `CC(C)(O)c1ccc2nc(-c3cccnc3N)n(-c3ccc(CNC(=O)Cc4ccc(C=O)c(O)c4)cc3)c2n1` [Example 17, N-({4-[2-(2-aminopyridin-3-yl)-5-(2-hydroxypropan-2-yl)imidazo[4,5-b]pyridin-3-yl]phenyl}methyl)-2-(4-formyl-3-hydroxyphenyl)acetamide]: on AKT1 E17K, the “AKT1 E17K IC50: Selectivity vs AKT1 WT” value is given as 10, the “AKT1 E17K IC50: Selectivity vs AKT2” value is greater than 110 and the IC50 was less than 0.1 µM. For the same molecule, the IC50 against AKT1 WT [2] was greater than 0.5 µM. The molecule also registered an IC50 against AKT2 greater than 0.5 µM.

In the case of `CC1(c2ccc3nc(-c4cccnc4N)n(-c4ccc(CNC(=O)Cc5ccc(C=O)c(O)c5)cc4)c3n2)CC1` [Example 18, N-({4-[2-(2-aminopyridin-3-yl)-5-(1-methylcyclopropyl)imidazo[4,5-b]pyridin 3-yl]phenyl}methyl)-2-(4-formyl-3-hydroxyphenyl)acetamide], the “AKT1 E17K IC50: Selectivity vs AKT1 WT” value at AKT1 E17K came to 6.1. In addition, on AKT1 E17K, the “AKT1 E17K IC50: Selectivity vs AKT2” value was 150. Moreover, the IC50 at AKT1 E17K is less than 0.1 µM; on AKT1 WT [2] it was 0.1 to 0.5 µM; against AKT2, greater than 0.5 µM.

As for `Nc1ncccc1-c1nc2ccc(-c3cccc(N4CCOCC4)c3)nc2n1-c1ccc(CCNCc2ccc(C=O)c(O)c2)cc1` [Example 19, 4-(((4-(2-(2-aminopyridin-3-yl)-5-(3-morpholinophenyl)-3H-imidazo[4,5-b]pyridin-3-yl)phenethyl)amino)methyl)-2-hydroxybenzaldehyde], on AKT1 E17K, the “AKT1 E17K IC50: Selectivity vs AKT1 WT” value was determined as 1.7, the “AKT1 E17K IC50: Selectivity vs AKT2” value is reported as 4.9 and the IC50 was less than 0.1 µM. Also, the IC50 against AKT1 WT [2] was less than 0.1 µM. The same molecule gave an IC50 against AKT2 of less than 0.1 µM.

For `Nc1ncccc1-c1nc2ccc(C3CC3)nc2n1-c1ccc(CNC(=O)Cc2ccc(C=O)c(O)c2Cl)cc1` [Example 22, N-({4-[2-(2-aminopyridin-3-yl)-5-cyclopropylimidazo[4,5-b]pyridin-3-yl]phenyl}methyl)-2-(2-chloro-4-formyl-3-hydroxyphenyl)acetamide], on AKT1 E17K, the “AKT1 E17K IC50: Selectivity vs AKT1 WT” value is on record as 3.1, the “AKT1 E17K IC50: Selectivity vs AKT2” value is given as 190 and the IC50 was less than 0.1 µM. On AKT1 WT [2], this molecule returned an IC50 of less than 0.1 µM. Further, the IC50 on AKT2 is greater than 0.5 µM.

Turning to `CC(C)c1ccc2nc(-c3cccnc3N)n(-c3ccc(CNC(=O)Cc4ccc(C=O)c(O)c4)cc3)c2n1` [Example 23, N-({4-[2-(2-aminopyridin-3-yl)-5-isopropylimidazo[4,5-b]pyridin-3-yl]phenyl}methyl)-2-(4-formyl-3-hydroxyphenyl)acetamide], at AKT1 E17K, the “AKT1 E17K IC50: Selectivity vs AKT1 WT” value was 4.8, the “AKT1 E17K IC50: Selectivity vs AKT2” value is 270 and the IC50 was less than 0.1 µM. Besides, the IC50 on AKT1 WT [2] was less than 0.1 µM. Further, the IC50 at AKT2 was greater than 0.5 µM.
